Columns and labels:
Type in all cases: biochemical
TrkA = biological target: T1, TrkA (Homo sapiens, UniProt P04629); assay: HTRF KinEASE kinase assay, recombinant Human TRK enzyme, TrkA (NTRK1); conditions: NTRK1 4 nM, read-out: TrkA Enz
T1 construct: purchased Invitrogen
Procedure: (§1) A suitable assay for determining the Trk inhibition activity of a compound is detailed herein below.
(§2) To determine the IC50 of small molecule compounds for the Human TRK receptors, HTRF® KinEASE™ kinase kits from Cisbio were used. Assays were carried out in low volume, black 384-well plates.
(§3) Recombinant Human TRK enzymes (Invitrogen) were incubated in the presence or absence of the compound (11-point dose response with FAC as 10 μM) for 30 minutes at 23° C. Kinase reaction was started by addition of ATP to a mixture containing the enzyme (NTRK1-4 nM, NTRK2-1 nM, NTRK3-10 nM) and substrate (1 μM). Kinase reaction was allowed to carry on for 10 to 45 minutes at 23° C. after which it was stopped by addition of the detection mix (supplied by vendor) containing EDTA, TK-Ab-labelled with Eu^3+-cryptate (1:200 dilutions) and Streptavidin-XL665 (250 nM). Assay plates were incubated in this detection mix for 60 minutes at 23° C. The resulting TR-FRET signal, calculated as the fluorescence ratio at 665/620 nm, was read on an Envision and was proportional to the level of phosphorylation of the peptide in the presence or absence of the compound. The uniformity of the plates were assured with Z′ value [1−{3*(SDHPE+SDZPE)/(ZPE−HPE)}]. The percent (%) effect i.e. Inhibition of compound was calculated in comparison to the signal in the positive (HPE) and negative control (ZPE) wells within each assay plate. The endpoint value % Inhibition for the Standard compound was evaluated in each experiment as a quality control measure. IC50 was determined by plotting compound inhibition at respective dose in Graphpad prism5 using four parameter logistic curve fit.

TrkB = biological target: T2, TrkB (Homo sapiens, UniProt Q16620); assay: HTRF KinEASE kinase assay, recombinant Human TRK enzyme, TrkB (NTRK2); conditions: NTRK2 1 nM, read-out: TrkB Enz
T2 construct: purchased Invitrogen
T2 sequence (Q16620 32-822): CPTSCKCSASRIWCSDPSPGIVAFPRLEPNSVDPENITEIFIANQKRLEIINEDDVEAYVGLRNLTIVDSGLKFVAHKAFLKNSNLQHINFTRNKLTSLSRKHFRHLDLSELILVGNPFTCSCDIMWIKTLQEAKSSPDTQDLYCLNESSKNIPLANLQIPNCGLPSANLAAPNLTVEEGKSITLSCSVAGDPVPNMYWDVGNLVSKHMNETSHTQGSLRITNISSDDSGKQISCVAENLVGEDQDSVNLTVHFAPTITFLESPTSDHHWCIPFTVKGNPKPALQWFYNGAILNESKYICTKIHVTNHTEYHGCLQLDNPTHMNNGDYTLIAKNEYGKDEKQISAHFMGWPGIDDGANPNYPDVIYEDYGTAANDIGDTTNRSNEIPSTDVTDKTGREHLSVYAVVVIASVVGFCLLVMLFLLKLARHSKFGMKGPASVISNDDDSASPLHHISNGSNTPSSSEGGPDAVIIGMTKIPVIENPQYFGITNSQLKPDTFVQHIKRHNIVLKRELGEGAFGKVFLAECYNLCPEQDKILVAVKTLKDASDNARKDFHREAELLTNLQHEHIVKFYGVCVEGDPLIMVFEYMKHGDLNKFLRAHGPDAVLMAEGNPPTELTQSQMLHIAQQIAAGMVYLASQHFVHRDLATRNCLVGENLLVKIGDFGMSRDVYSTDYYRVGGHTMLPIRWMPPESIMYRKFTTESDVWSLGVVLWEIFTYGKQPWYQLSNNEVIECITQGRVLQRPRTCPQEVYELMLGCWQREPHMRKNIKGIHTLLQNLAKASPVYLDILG
Procedure: as §1, §2, §3

TrkC = biological target: T3, TrkC (Homo sapiens, UniProt Q16288); assay: HTRF KinEASE kinase assay, recombinant Human TRK enzyme, TrkC (NTRK3); conditions: NTRK3 10 nM, read-out: TrkC Enz
T3 construct: purchased Invitrogen
T3 sequence (Q16288 32-839): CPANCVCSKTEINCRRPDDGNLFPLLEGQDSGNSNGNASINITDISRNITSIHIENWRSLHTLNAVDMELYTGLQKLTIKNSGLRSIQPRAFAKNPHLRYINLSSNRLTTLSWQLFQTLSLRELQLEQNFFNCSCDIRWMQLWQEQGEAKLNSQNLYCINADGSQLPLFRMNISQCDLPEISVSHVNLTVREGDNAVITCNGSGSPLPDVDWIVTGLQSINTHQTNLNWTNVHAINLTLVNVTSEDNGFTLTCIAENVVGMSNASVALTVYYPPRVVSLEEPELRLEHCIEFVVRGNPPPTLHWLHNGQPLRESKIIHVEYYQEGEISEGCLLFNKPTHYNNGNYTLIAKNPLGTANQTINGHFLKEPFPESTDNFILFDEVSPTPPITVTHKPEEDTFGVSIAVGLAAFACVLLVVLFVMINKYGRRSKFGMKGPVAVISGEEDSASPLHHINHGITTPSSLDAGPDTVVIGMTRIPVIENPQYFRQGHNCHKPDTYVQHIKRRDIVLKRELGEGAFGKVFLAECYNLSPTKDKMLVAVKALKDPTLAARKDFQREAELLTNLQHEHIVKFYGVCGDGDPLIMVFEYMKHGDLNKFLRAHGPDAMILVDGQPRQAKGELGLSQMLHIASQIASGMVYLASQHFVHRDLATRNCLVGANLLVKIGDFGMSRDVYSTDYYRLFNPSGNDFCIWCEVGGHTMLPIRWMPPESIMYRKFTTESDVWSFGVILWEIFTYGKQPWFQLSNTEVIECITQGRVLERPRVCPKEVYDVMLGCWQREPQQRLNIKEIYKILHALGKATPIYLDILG
Procedure: as §1, §2, §3

T1 sequence (P04629 33-796): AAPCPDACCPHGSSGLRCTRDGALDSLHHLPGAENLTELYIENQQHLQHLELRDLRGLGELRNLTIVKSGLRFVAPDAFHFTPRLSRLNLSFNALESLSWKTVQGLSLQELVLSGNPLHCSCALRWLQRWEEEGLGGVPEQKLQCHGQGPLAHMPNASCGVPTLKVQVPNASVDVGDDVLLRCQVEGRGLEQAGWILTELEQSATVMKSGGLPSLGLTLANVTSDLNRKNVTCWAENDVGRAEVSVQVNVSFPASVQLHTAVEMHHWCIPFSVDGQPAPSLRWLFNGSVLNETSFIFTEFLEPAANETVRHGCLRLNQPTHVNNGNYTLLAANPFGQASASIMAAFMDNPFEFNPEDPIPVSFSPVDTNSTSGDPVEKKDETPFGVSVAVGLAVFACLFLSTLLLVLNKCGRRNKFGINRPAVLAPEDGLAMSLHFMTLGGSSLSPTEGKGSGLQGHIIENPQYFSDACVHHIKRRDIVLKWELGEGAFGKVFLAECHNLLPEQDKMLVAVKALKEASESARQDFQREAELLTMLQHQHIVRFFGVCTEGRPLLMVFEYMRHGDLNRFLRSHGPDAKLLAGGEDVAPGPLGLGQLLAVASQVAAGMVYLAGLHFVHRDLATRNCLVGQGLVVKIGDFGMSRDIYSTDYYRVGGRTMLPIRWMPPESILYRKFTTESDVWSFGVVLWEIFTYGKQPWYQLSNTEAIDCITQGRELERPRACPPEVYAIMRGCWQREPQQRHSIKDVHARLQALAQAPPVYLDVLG

| IC50 (TrkA) [nM] | IC50 (TrkB) [nM] | IC50 (TrkC) [nM] | Compound |
| --- | --- | --- | --- |
| 1.73 | 4.54 | 3.28 | COC(=O)c1cccc(CN2CC[C@H](NC(=O)c3cnc4ccc(N5C[C@@H](F)C[C@@H]5c5cc(F)cc(SC)c5)nn34)C2)c1 [Example 16, Methyl 3-{[(3S)-3-{6-[(2R,4S)-4-fluoro-2-[3-fluoro-5-(methylsulfanyl)phenyl]pyrrolidin-1-yl]imidazo[1,2-b]pyridazine-3-amido}pyrrolidin-1-yl]methyl}benzoate] |
| 2.41 | 5.04 | 4.62 | CSc1cc(F)cc([C@H]2C[C@H](F)CN2c2ccc3ncc(C(=O)N[C@H]4CCN(Cc5cccc(O)c5)C4)n3n2)c1 [Example 17, 6-[(2R,4S)-4-fluoro-2-[3-fluoro-5-(methylsulfanyl)phenyl]pyrrolidin-1-yl]-N-[(3S)-1-[(3-hydroxyphenyl)methyl]pyrrolidin-3-yl]imidazo[1,2-b]pyridazine-3-carboxamide] |
| 2.87 | 7.82 | 5.19 | CSc1cc(F)cc([C@H]2C[C@H](F)CN2c2ccc3ncc(C(=O)N[C@H]4CCN(Cc5ccc(F)c(O)c5)C4)n3n2)c1 [Example 18, 6-[(2R,4S)-4-fluoro-2-[3-fluoro-5-(methylsulfanyl)phenyl]pyrrolidin-1-yl]-N-[(3S)-1-[(4-fluoro-3-hydroxyphenyl)methyl]pyrrolidin-3-yl]imidazo[1,2-b]pyridazine-3-carboxamide] |
| 2.46 | 3.04 | 2.99 | CSc1cc(F)cc([C@H]2C[C@H](F)CN2c2ccc3ncc(C(=O)NC4CN(Cc5ccc(F)c(O)c5)C4)n3n2)c1 [Example 19, 6-[(2R,4S)-4-fluoro-2-[3-fluoro-5-(methylsulfanyl)phenyl]pyrrolidin-1-yl]-N-{1-[(4-fluoro-3-hydroxyphenyl)methyl]azetidin-3-yl}imidazo[1,2-b]pyridazine-3-carboxamide] |
| 2.69 | 3.76 | 3.72 | CSc1cc(F)cc([C@H]2C[C@H](F)CN2c2ccc3ncc(C(=O)NC4CN(Cc5cccc(O)c5)C4)n3n2)c1 [Example 20, 6-[(2R,4S)-4-fluoro-2-[3-fluoro-5-(methylsulfanyl)phenyl]pyrrolidin-1-yl]-N-{1-[(3-hydroxyphenyl)methyl]azetidin-3-yl}imidazo[1,2-b]pyridazine-3-carboxamide] |
| 1.48 | 1.5 | 1.97 | CSc1cc(F)cc([C@H]2C[C@H](F)CN2c2ccc3ncc(C(=O)NC4CCN(Cc5ccc(F)c(O)c5)CC4)n3n2)c1 [Example 21, 6-[(2R,4S)-4-fluoro-2-[3-fluoro-5-(methylsulfanyl)phenyl]pyrrolidin-1-yl]-N-{1-[(4-fluoro-3-hydroxyphenyl)methyl]piperidin-4-yl}imidazo[1,2-b]pyridazine-3-carboxamide] |
| 1.4 | 2.01 | 2.13 | CSc1cc(F)cc([C@H]2C[C@H](F)CN2c2ccc3ncc(C(=O)NC4CCN(Cc5cccc(O)c5)CC4)n3n2)c1 [Example 22, 6-[(2R,4S)-4-fluoro-2-[3-fluoro-5-(methylsulfanyl)phenyl]pyrrolidin-1-yl]-N-{1-[(3-hydroxyphenyl)methyl]piperidin-4-yl}imidazo[1,2-b]pyridazine-3-carboxamide] |
| 2.37 | 10.3 | 6.85 | CO[C@H]1CN(Cc2ccc(F)c(O)c2)C[C@@H]1NC(=O)c1cnc2ccc(N3C[C@@H](F)C[C@@H]3c3cc(F)cc(SC)c3)nn12 [Example 23, 6-[(2R,4S)-4-fluoro-2-[3-fluoro-5-(methylsulfanyl)phenyl]pyrrolidin-1-yl]-N-[(3S,4S)-1-[(4-fluoro-3-hydroxyphenyl)methyl]-4-methoxypyrrolidin-3-yl]imidazo[1,2-b]pyridazine-3-carboxamide] |
| 1.87 | 1.85 | 2.97 | CSc1cc(F)cc([C@H]2C[C@H](F)CN2c2ccc3ncc(C(=O)NCc4ccc(F)c(O)c4)n3n2)c1 [Example 26, 6-[(2R,4S)-4-fluoro-2-[3-fluoro-5-(methylsulfanyl)phenyl]pyrrolidin-1-yl]-N-[(4-fluoro-3-hydroxyphenyl)methyl]imidazo[1,2-b]pyridazine-3-carboxamide] |
| 1.34 | 1.01 | 1.87 | CSc1cc(F)cc([C@H]2C[C@H](F)CN2c2ccc3ncc(C(=O)N[C@H]4CCN(C(=O)c5cccc(O)c5)C4)n3n2)c1 [Example 27, 6-[(2R,4S)-4-fluoro-2-[3-fluoro-5-(methylsulfanyl)phenyl]pyrrolidin-1-yl]-N-[(3S)-1-(3-hydroxybenzoyl)pyrrolidin-3-yl]imidazo[1,2-b]pyridazine-3-carboxamide] |
| 4.63 | 5.67 | 4.88 | CSc1cc(F)cc([C@H]2C[C@H](F)CN2c2ccc3ncc(C(=O)N[C@H]4CCN(Cc5cccc(OC(C)=O)c5)C4)n3n2)c1 [Example 28, 3-{[(3S)-3-{6-[(2R,4S)-4-fluoro-2-[3-fluoro-5-(methylsulfanyl)phenyl]pyrrolidin-1-yl]imidazo[1,2-b]pyridazine-3-amido}pyrrolidin-1-yl]methyl}phenyl Acetate] |
| 5.84 | 5.34 | 3.98 | CSc1cc(F)cc([C@H]2C[C@H](F)CN2c2ccc3ncc(C(=O)N[C@H]4CCN(Cc5cccc(C(=O)O)c5)C4)n3n2)c1 [Example 29, 3-{[(3S)-3-{6-[(2R,4S)-4-fluoro-2-[3-fluoro-5-(methylsulfanyl)phenyl]pyrrolidin-1-yl]imidazo[1,2-b]pyridazine-3-amido}pyrrolidin-1-yl]methyl}benzoic Acid] |
| 22.4 | 14.9 | 22.4 | CCCCOC(=O)c1cccc(CN2CC[C@H](NC(=O)c3cnc4ccc(N5C[C@@H](F)C[C@@H]5c5cc(F)cc(SC)c5)nn34)C2)c1 [Example 30, Butyl 3-{[(3S)-3-{6-[(2R,4S)-4-fluoro-2-[3-fluoro-5-(methylsulfanyl)phenyl]pyrrolidin-1-yl]imidazo[1,2-b]pyridazine-3-amido}pyrrolidin-1-yl]methyl}benzoate] |
| 1.38 | 0.86 | 1.38 | CSc1cc(F)cc([C@H]2C[C@H](F)CN2c2ccn3ncc(C(=O)NC4CCN(Cc5cccc(O)c5)CC4)c3n2)c1 [Example 31, 5-[(2R,4S)-4-fluoro-2-[3-fluoro-5-(methylsulfanyl)phenyl]pyrrolidin-1-yl]-N-{1-[(3-hydroxyphenyl)methyl]piperidin-4-yl}pyrazolo[1,5-a]pyrimidine-3-carboxamide] |
